Experimental data as given in patent publication US20240182487A1, “MACROCYCLES AND THEIR USE” (BLOSSOMHILL THERAPEUTICS, INC., priority 2020, published 2024).

These molecules were tested against EGFR (Δ746-750) (Homo sapiens (Human), UniProt P00533, DEL746-750) (assay: HotSpot radiometric kinase assay, EGFR Δ746-750). Settings: radiometric filter-binding, 10 μM ATP.
Assay type: biochemical

EGFR (Δ746-750), sequence (P00533 other isoform, or with tags, fused parts or gaps del 1-668/del 746-750 limits assumed): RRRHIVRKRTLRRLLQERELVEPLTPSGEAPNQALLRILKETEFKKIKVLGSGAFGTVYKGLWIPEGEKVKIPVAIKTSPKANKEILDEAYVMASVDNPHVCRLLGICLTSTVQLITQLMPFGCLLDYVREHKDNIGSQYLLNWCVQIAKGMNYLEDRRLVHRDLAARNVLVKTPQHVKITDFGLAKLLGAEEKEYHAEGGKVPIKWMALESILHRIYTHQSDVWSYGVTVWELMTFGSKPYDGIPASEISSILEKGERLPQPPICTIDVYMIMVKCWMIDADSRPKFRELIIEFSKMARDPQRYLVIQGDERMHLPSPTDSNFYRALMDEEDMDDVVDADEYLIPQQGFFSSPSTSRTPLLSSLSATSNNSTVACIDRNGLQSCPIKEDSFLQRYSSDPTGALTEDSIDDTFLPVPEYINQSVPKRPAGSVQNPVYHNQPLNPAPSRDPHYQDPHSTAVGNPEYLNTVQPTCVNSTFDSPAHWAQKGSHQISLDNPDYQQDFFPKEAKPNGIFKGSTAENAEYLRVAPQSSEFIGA

Structure (SMILES) | IC50 [nM]
CN1CCN(C(=O)c2ccc3c(c2)/C=C/c2n[nH]c4cnc(cc24)-c2cnn(C)c2COCCO3)CC1 [Cpd. 96, (4-methylpiperazin-1-yl)[(11E)-1-methyl-1,18,19,21-tetrahydro-8H-10,7,4-(ethan[1]yl[1,2]diylidene)pyrazolo[3,4-f][1,4,9,12,13]benzodioxatriazacyclooctadecin-14-yl]methanone] | 740
CN1CC(NC(=O)c2ccc3c(c2)OCCCOc2c(cnn2C)-c2cc4c(n[nH]c4cn2)/C=C/3)C1 [Cpd. 83, (11E)-1-methyl-N-(1-methylazetidin-3-yl)-19,20-dihydro-1H,8H,18H-10,7,4-(ethan[1]yl[1,2]diylidene)pyrazolo[3,4-f][1,5,9,12,13]benzodioxatriazacyclooctadecine-15-carboxamide] | 34.4
CN1CC[C@H](NC(=O)c2ccc3c(c2)OCCCOc2c(cnn2C)-c2cc4c(n[nH]c4cn2)/C=C/3)C1 [Cpd. 88, (11E)-1-methyl-N-[(3S)-1-methylpyrrolidin-3-yl]-19,20-dihydro-1H,8H,18H-10,7,4-(ethan[1]yl[1,2]diylidene)pyrazolo[3,4-f][1,5,9,12,13]benzodioxatriazacyclooctadecine-15-carboxamide] | 24.6
Cn1ncc2c1COCCOc1ccc(C(=O)O)cc1/C=C/c1n[nH]c3cnc-2cc13 [Cpd. 92, (11E)-1-methyl-1,18,19,21-tetrahydro-8H-10,7,4-(ethan[1]yl[1,2]diylidene)pyrazolo[3,4-f][1,4,9,12,13]benzodioxatriazacyclooctadecine-14-carboxylic acid] | 47.1
CN1CC[C@@H](NC(=O)c2ccc3c(c2)OCCCOc2c(cnn2C)-c2cc4c(n[nH]c4cn2)/C=C/3)C1 [Cpd. 82, (11E)-1-methyl-N-[(3R)-1-methylpyrrolidin-3-yl]-19,20-dihydro-1H,8H,18H-10,7,4-(ethan[1]yl[1,2]diylidene)pyrazolo[3,4-f][1,5,9,12,13]benzodioxatriazacyclooctadecine-15-carboxamide] | 28.3
CN(C)CCCNC(=O)c1ccc2c(c1)/C=C/c1n[nH]c3cnc(cc13)-c1cnn(C)c1OCCCO2 [Cpd. 70, (11E)-N-[3-(dimethylamino)propyl]-1-methyl-19,20-dihydro-1H,8H,18H-10,7,4-(ethan[1]yl[1,2]diylidene)pyrazolo[3,4-f][1,5,9,12,13]benzodioxatriazacyclooctadecine-14-carboxamide] | 2.9
CCNC(=O)c1ccc2c(c1)/C=C/c1n[nH]c3cnc(cc13)-c1cnn(C)c1COCCO2 [Cpd. 89, (11E)-N-ethyl-1-methyl-1,18,19,21-tetrahydro-8H-10,7,4-(ethan[1]yl[1,2]diylidene)pyrazolo[3,4-f][1,4,9,12,13]benzodioxatriazacyclooctadecine-14-carboxamide] | 23.8
CN1CC[C@@H](NC(=O)c2ccc3c(c2)OCCOCc2c(cnn2C)-c2cc4c(n[nH]c4cn2)/C=C/3)C1 [Cpd. 87, (11E)-1-methyl-N-[(3R)-1-methylpyrrolidin-3-yl]-1,18,19,21-tetrahydro-8H-10,7,4-(ethan[1]yl[1,2]diylidene)pyrazolo[3,4-f][1,4,9,12,13]benzodioxatriazacyclooctadecine-15-carboxamide] | 34.6
COC(=O)c1ccc2c(c1)OCCOCc1c(cnn1C)-c1cc3c(n[nH]c3cn1)/C=C/2 [Cpd. 69, methyl (11E)-1-methyl-1,18,19,21-tetrahydro-8H-10,7,4-(ethan[1]yl[1,2]diylidene)pyrazolo[3,4-f][1,4,9,12,13]benzodioxatriazacyclooctadecine-15-carboxylate] | 1000
CC(C)NC(=O)c1ccc2c(c1)OCCCOc1c(cnn1C)-c1cc3c(n[nH]c3cn1)/C=C/2 [Cpd. 77, (11E)-1-methyl-N-(propan-2-yl)-19,20-dihydro-1H,8H,18H-10,7,4-(ethan[1]yl[1,2]diylidene)pyrazolo[3,4-f][1,5,9,12,13]benzodioxatriazacyclooctadecine-15-carboxamide] | 34.6

Further molecules by falling IC50, results first:

IC50 [nM] | Structure (SMILES)
836 | Cc1nc2cc3c(n[nH]c13)/C=C/c1cc(F)ccc1OCCCOc1c-2cnn1C [Cpd. 98, (11E)-14-fluoro-1,6-dimethyl-19,20-dihydro-1H,8H,18H-10,7,4-(ethan[1]yl[1,2]diylidene)pyrazolo[3,4-f][1,5,9,12,13]benzodioxatriazacyclooctadecine]
139 | Cc1ccc2c(n1)/C=C/c1n[nH]c3cnc(cc13)-c1cnn(C)c1C(C)OCCO2 (stereo not shown) [Cpd. 95, (18E)-8,9,16-trimethyl-8,9,11,12-tetrahydro-2H-5,3-(azenometheno)dipyrazolo[3′,4′:9,10;4″,3″:13,14][1,4]dioxacyclopentadecino[6,5-b]pyridine]
93.3 | COC(=O)c1ccc2c(c1)/C=C/c1n[nH]c3cnc(cc13)-c1cnn(C)c1OCCCO2 [Cpd. 68, methyl (11E)-1-methyl-19,20-dihydro-1H,8H,18H-10,7,4-(ethan[1]yl[1,2]diylidene)pyrazolo[3,4-f][1,5,9,12,13]benzodioxatriazacyclooctadecine-14-carboxylate]
70 | CN1CCC(NC(=O)c2ccc3c(c2)OCCOCc2c(cnn2C)-c2cc4c(n[nH]c4cn2)/C=C/3)CC1 [Cpd. 85, (11E)-1-methyl-N-(1-methylpiperidin-4-yl)-1,18,19,21-tetrahydro-8H-10,7,4-(ethan[1]yl[1,2]diylidene)pyrazolo[3,4-f][1,4,9,12,13]benzodioxatriazacyclooctadecine-15-carboxamide]
51 | COC(=O)c1ccc2c(c1)/C=C/c1n[nH]c3cnc(cc13)-c1cnn(C)c1COCCO2 [Cpd. 75, methyl (11E)-1-methyl-1,18,19,21-tetrahydro-8H-10,7,4-(ethan[1]yl[1,2]diylidene)pyrazolo[3,4-f][1,4,9,12,13]benzodioxatriazacyclooctadecine-14-carboxylate]
35.8 | Cn1ncc2c1OCCCOc1cc(C(=O)O)ccc1/C=C/c1n[nH]c3cnc-2cc13 [Cpd. 73, (11E)-1-methyl-19,20-dihydro-1H,8H,18H-10,7,4-(ethan[1]yl[1,2]diylidene)pyrazolo[3,4-f][1,5,9,12,13]benzodioxatriazacyclooctadecine-15-carboxylic acid]
19.7 | CN(C)CCCNC(=O)c1ccc2c(c1)/C=C/c1n[nH]c3cnc(cc13)-c1cnn(C)c1COCCO2 [Cpd. 91, (11E)-N-[3-(dimethylamino)propyl]-1-methyl-1,18,19,21-tetrahydro-8H-10,7,4-(ethan[1]yl[1,2]diylidene)pyrazolo[3,4-f][1,4,9,12,13]benzodioxatriazacyclooctadecine-14-carboxamide]
13.6 | CN1CCC(NC(=O)c2ccc3c(c2)/C=C/c2n[nH]c4cnc(cc24)-c2cnn(C)c2COCCO3)CC1 [Cpd. 93, (11E)-1-methyl-N-(1-methylpiperidin-4-yl)-1,18,19,21-tetrahydro-8H-10,7,4-(ethan[1]yl[1,2]diylidene)pyrazolo[3,4-f][1,4,9,12,13]benzodioxatriazacyclooctadecine-14-carboxamide]
2.2 | CN1CCC(CNC(=O)c2ccc3c(c2)/C=C/c2n[nH]c4cnc(cc24)-c2cnn(C)c2OCCCO3)CC1 [Cpd. 76, (11E)-1-methyl-N-[(1-methylpiperidin-4-yl)methyl]-19,20-dihydro-1H,8H,18H-10,7,4-(ethan[1]yl[1,2]diylidene)pyrazolo[3,4-f][1,5,9,12,13]benzodioxatriazacyclooctadecine-14-carboxamide]
